{
  "source": "paper PMC5218480",
  "about": "(PLoS ONE, 2017)",
  "tested_on": "MV-4-11 cells",
  "assay": "Gene expression microarray analysis (Affymetrix PrimeView) and GSEA",
  "type": "cell-based, human",
  "design": "RFU PODN (11730768_x_at) / Fold change /veh PODN (11730768_x_at) / RFU LINC00158 (11744669_a_at) / Fold change /veh LINC00158 (11744669_a_at) / RFU DUSP10 (11751237_a_at) / Fold change /veh DUSP10 (11751237_a_at) / RFU ID3 (11757404_x_at) / Fold change /veh ID3 (11757404_x_at) / RFU PLEKHG5 (11737974_s_at) / Fold change /veh PLEKHG5 (11737974_s_at) / RFU LRRC4B (11730491_at) / Fold change /veh LRRC4B (11730491_at) / RFU GIMAP4 (11747438_a_at) / Fold change /veh GIMAP4 (11747438_a_at) / RFU KRT8 (11758183_x_at) / Fold change /veh KRT8 (11758183_x_at) / RFU CNN1 (11734310_a_at) / Fold change /veh CNN1 (11734310_a_at) / RFU VPS37D (11726825_at) / Fold change /veh VPS37D (11726825_at) / RFU C10orf10 (11716522_x_at) / Fold change /veh C10orf10 (11716522_x_at) / RFU KIR2DL2 /// KIR2DL4 /// KIR2DL5A /// KIR2DL5B /// KIR2DS1 /// KIR2DS2 /// KIR2DS3 /// KIR2DS4 /// KIR3DL3 /// KIR3DL3 /// KIR3DS1 (11738374_at) / Fold change /veh KIR2DL2 /// KIR2DL4 /// KIR2DL5A /// KIR2DL5B /// KIR2DS1 /// KIR2DS2 /// KIR2DS3 /// KIR2DS4 /// KIR3DL3 /// KIR3DL3 /// KIR3DS1 (11738374_at) / RFU C1QL1 (11718748_at) / Fold change /veh C1QL1 (11718748_at) / RFU TMPRSS4 (11747572_a_at) / Fold change /veh TMPRSS4 (11747572_a_at) / RFU HAMP (11756126_x_at) / Fold change /veh HAMP (11756126_x_at) / RFU RNFT2 (11725882_a_at) / Fold change /veh RNFT2 (11725882_a_at) / RFU NR4A2 (11747474_a_at) / Fold change /veh NR4A2 (11747474_a_at) / RFU ABCC12 (11746883_a_at) / Fold change /veh ABCC12 (11746883_a_at) / RFU TMEM136 (11760407_x_at) / Fold change /veh TMEM136 (11760407_x_at) / RFU CLDN22 /// WWC2 (11732394_at) / Fold change /veh CLDN22 /// WWC2 (11732394_at) / RFU HLA-DPB1 (11760878_x_at) / Fold change /veh HLA-DPB1 (11760878_x_at) / RFU SPINT1 (11716480_a_at) / Fold change /veh SPINT1 (11716480_a_at) / RFU GAP43 (11754022_s_at) / Fold change /veh GAP43 (11754022_s_at) / RFU A4GNT (11735810_at) / Fold change /veh A4GNT (11735810_at) / RFU PRB3 (11715151_x_at) / Fold change /veh PRB3 (11715151_x_at) / RFU TUBB4B (11761932_at) / Fold change /veh TUBB4B (11761932_at) / RFU CAPN14 (11732068_a_at) / Fold change /veh CAPN14 (11732068_a_at) / RFU TMCC2 (11721928_a_at) / Fold change /veh TMCC2 (11721928_a_at) / RFU IRGQ (11745062_a_at) / Fold change /veh IRGQ (11745062_a_at) / RFU FAM174B (11720279_a_at) / Fold change /veh FAM174B (11720279_a_at) / RFU TMPRSS4 (11748680_a_at) / Fold change /veh TMPRSS4 (11748680_a_at) / RFU FAM212B (11763350_a_at) / Fold change /veh FAM212B (11763350_a_at) / RFU PLEKHG5 (11743358_a_at) / Fold change /veh PLEKHG5 (11743358_a_at) / RFU ZSCAN30 (11745921_a_at) / Fold change /veh ZSCAN30 (11745921_a_at) / RFU CMKLR1 (11741424_a_at) / Fold change /veh CMKLR1 (11741424_a_at) / RFU LOC101060620 /// MAPK8IP1 (11723275_at) / Fold change /veh LOC101060620 /// MAPK8IP1 (11723275_at) / RFU SPTSSB (11747773_x_at) / Fold change /veh SPTSSB (11747773_x_at) / RFU PRSS12 (11739890_at) / Fold change /veh PRSS12 (11739890_at) / RFU BIN1 (11741810_x_at) / Fold change /veh BIN1 (11741810_x_at) / RFU WNT11 (11732464_a_at) / Fold change /veh WNT11 (11732464_a_at) / RFU C10orf10 (11716521_a_at) / Fold change /veh C10orf10 (11716521_a_at) / RFU C5orf56 (11738089_at) / Fold change /veh C5orf56 (11738089_at) / RFU CYB561 (11721691_x_at) / Fold change /veh CYB561 (11721691_x_at) / RFU ANKRD19P (11752326_a_at) / Fold change /veh ANKRD19P (11752326_a_at) / RFU OR2T12 /// OR2T33 /// OR2T8 (11738714_s_at) / Fold change /veh OR2T12 /// OR2T33 /// OR2T8 (11738714_s_at) / RFU VCAN (11748164_a_at) / Fold change /veh VCAN (11748164_a_at) / RFU JSRP1 (11732532_at) / Fold change /veh JSRP1 (11732532_at) / RFU KRTAP10-11 (11738290_x_at) / Fold change /veh KRTAP10-11 (11738290_x_at) / RFU MYO3A (11730013_a_at) / Fold change /veh MYO3A (11730013_a_at) / RFU EBF3 (11725865_a_at) / Fold change /veh EBF3 (11725865_a_at) / RFU CAMK2N1 (11719241_x_at) / Fold change /veh CAMK2N1 (11719241_x_at) / RFU C5orf56 (11738088_a_at) / Fold change /veh C5orf56 (11738088_a_at) / RFU OLFML3 (11715873_a_at) / Fold change /veh OLFML3 (11715873_a_at) / RFU LOC100653217 /// NTM (11731650_a_at) / Fold change /veh LOC100653217 /// NTM (11731650_a_at) / RFU MAPK11 (11762145_a_at) / Fold change /veh MAPK11 (11762145_a_at) / RFU FIZ1 (11724087_x_at) / Fold change /veh FIZ1 (11724087_x_at) / RFU OASL (11726364_x_at) / Fold change /veh OASL (11726364_x_at) / RFU SOX15 (11748057_x_at) / Fold change /veh SOX15 (11748057_x_at) / RFU CD79A (11719716_a_at) / Fold change /veh CD79A (11719716_a_at) / RFU HIST1H1D (11736915_at) / Fold change /veh HIST1H1D (11736915_at) / RFU CASKIN2 (11723855_a_at) / Fold change /veh CASKIN2 (11723855_a_at) / RFU LOC730098 (11760151_x_at) / Fold change /veh LOC730098 (11760151_x_at) / RFU OR4N2 (11742367_at) / Fold change /veh OR4N2 (11742367_at) / RFU PRRT2 (11749266_a_at) / Fold change /veh PRRT2 (11749266_a_at) / RFU SNX32 (11753110_a_at) / Fold change /veh SNX32 (11753110_a_at) / RFU CDHR5 (11726645_a_at) / Fold change /veh CDHR5 (11726645_a_at) / RFU RCAN1 (11760418_a_at) / Fold change /veh RCAN1 (11760418_a_at) / RFU FAM167A (11723789_a_at) / Fold change /veh FAM167A (11723789_a_at) / RFU FAM26E (11764081_at) / Fold change /veh FAM26E (11764081_at) / RFU ISYNA1 (11749810_s_at) / Fold change /veh ISYNA1 (11749810_s_at) / RFU ACY1 (11761880_at) / Fold change /veh ACY1 (11761880_at) / RFU 11764098_at / Fold change /veh 11764098_at / RFU SAMD14 (11745864_x_at) / Fold change /veh SAMD14 (11745864_x_at) / RFU NPB (11741838_a_at) / Fold change /veh NPB (11741838_a_at) / RFU TMPRSS6 (11731388_a_at) / Fold change /veh TMPRSS6 (11731388_a_at) / RFU KRTAP10-2 (11738614_at) / Fold change /veh KRTAP10-2 (11738614_at) / RFU ARHGAP8 /// PRR5-ARHGAP8 (11727945_x_at) / Fold change /veh ARHGAP8 /// PRR5-ARHGAP8 (11727945_x_at) / RFU KRTAP5-7 /// NADSYN1 (11734609_at) / Fold change /veh KRTAP5-7 /// NADSYN1 (11734609_at) / RFU RASL12 (11751679_a_at) / Fold change /veh RASL12 (11751679_a_at) / RFU CDKN2B (11736163_a_at) / Fold change /veh CDKN2B (11736163_a_at) / RFU PRF1 (11729649_at) / Fold change /veh PRF1 (11729649_at) / RFU, ZNF638 /// ZNF638-IT1 / Fold change vs veh, ZNF638 /// ZNF638-IT1 / RFU, PANK3 / Fold change vs veh, PANK3 / RFU, SH3YL1 / Fold change vs veh, SH3YL1 / RFU, ZEB2 / Fold change vs veh, ZEB2 / RFU, NRIP1 / Fold change vs veh, NRIP1 / RFU, PTTG1IP / Fold change vs veh, PTTG1IP / RFU, CAPN2 / Fold change vs veh, CAPN2 / RFU, MED14 / Fold change vs veh, MED14 / RFU, SNORA58 / Fold change vs veh, SNORA58 / RFU, C1orf63 / Fold change vs veh, C1orf63 / RFU, LRRFIP1 / Fold change vs veh, LRRFIP1 / RFU, NDUFAF7 / Fold change vs veh, NDUFAF7 / RFU, SLC12A2 / Fold change vs veh, SLC12A2 / RFU, IBTK / Fold change vs veh, IBTK / RFU, ESF1 / Fold change vs veh, ESF1 / Fold change vs veh, TMEM50B / RFU, TAOK1 / Fold change vs veh, TAOK1 / RFU, ACBD3 / Fold change vs veh, ACBD3 / RFU, TMA16 / Fold change vs veh, TMA16 / RFU, RWDD3 / Fold change vs veh, RWDD3 / RFU, BCAT1 / Fold change vs veh, BCAT1 / RFU, EDEM3 / Fold change vs veh, EDEM3 / RFU, TMEM33 / Fold change vs veh, TMEM33 / RFU, WDR75 / Fold change vs veh, WDR75 / RFU, AHCTF1 / Fold change vs veh, AHCTF1 / RFU, TFRC / Fold change vs veh, TFRC / RFU, ZDHHC17 / Fold change vs veh, ZDHHC17 / RFU, NOM1 / Fold change vs veh, NOM1 / RFU, ARL8B / Fold change vs veh, ARL8B / RFU, ZBTB11 / Fold change vs veh, ZBTB11 / RFU, TAMM41 / Fold change vs veh, TAMM41 / RFU, KIAA1704 /// LOC100996395 / Fold change vs veh, KIAA1704 /// LOC100996395 / RFU, ING1 / Fold change vs veh, ING1 / RFU, TRMT61B / Fold change vs veh, TRMT61B / RFU, FUBP3 / Fold change vs veh, FUBP3 / RFU, TP53 / Fold change vs veh, TP53 / RFU, TNKS2 / Fold change vs veh, TNKS2 / RFU, ZFP14 / Fold change vs veh, ZFP14 / RFU, ACTR2 / Fold change vs veh, ACTR2 / RFU, PPP3R1 / Fold change vs veh, PPP3R1 / RFU, PIK3R1 / Fold change vs veh, PIK3R1 / RFU, HNRNPA1 / Fold change vs veh, HNRNPA1 / RFU, RNF170 / Fold change vs veh, RNF170 / RFU, ZNF28 / Fold change vs veh, ZNF28 / RFU, RNGTT / Fold change vs veh, RNGTT / RFU, OGT / Fold change vs veh, OGT / RFU, BRD1 / Fold change vs veh, BRD1 / RFU, MARS / Fold change vs veh, MARS / RFU, ZNF655 / Fold change vs veh, ZNF655 / RFU, FAHD1 / Fold change vs veh, FAHD1 / RFU, BDP1 / Fold change vs veh, BDP1 / RFU, LRRCC1 / Fold change vs veh, LRRCC1 / RFU, ARID1A / Fold change vs veh, ARID1A / RFU, ZNF146 / Fold change vs veh, ZNF146 / RFU, ZNF330 / Fold change vs veh, ZNF330 / RFU, GPN3 / Fold change vs veh, GPN3 / RFU, C9orf123 / Fold change vs veh, C9orf123 / RFU, N4BP2L2 / Fold change vs veh, N4BP2L2 / RFU, ARFIP1 / Fold change vs veh, ARFIP1 / RFU, FAM179B / Fold change vs veh, FAM179B / RFU, BCL10 / Fold change vs veh, BCL10 / RFU, UHRF1BP1L / Fold change vs veh, UHRF1BP1L / RFU, BET1 / Fold change vs veh, BET1 / RFU, CNOT2 / Fold change vs veh, CNOT2 / RFU, ZNF268 / Fold change vs veh, ZNF268 / Fold change vs veh, ZNF507 / RFU, DGCR2 / Fold change vs veh, DGCR2 / RFU, WDSUB1 / Fold change vs veh, WDSUB1 / Fold change vs veh, HSP90B1 /// MIR3652 / RFU, ADSS / Fold change vs veh, ADSS / RFU, GK / Fold change vs veh, GK / RFU, ZNF148 / Fold change vs veh, ZNF148 / RFU, TAF9 / Fold change vs veh, TAF9 / RFU, SLC1A5 / Fold change vs veh, SLC1A5 / RFU, SLMO2 / Fold change vs veh, SLMO2 / RFU, ABCC4 / Fold change vs veh, ABCC4 / RFU, LOC101060439 /// RAP1B / Fold change vs veh, LOC101060439 /// RAP1B / RFU, RFX7 / Fold change vs veh, RFX7 / RFU, GTPBP10 / Fold change vs veh, GTPBP10 / RFU, CNEP1R1 / Fold change vs veh, CNEP1R1 / RFU, BIVM-ERCC5 /// ERCC5 / Fold change vs veh, BIVM-ERCC5 /// ERCC5 / RFU, ILF3 / Fold change vs veh, ILF3 / RFU 11762660_at / Fold change /veh 11762660_at / RFU VCAN (11757783_s_at) / Fold change /veh VCAN (11757783_s_at) / RFU DDX43 (11728927_at) / Fold change /veh DDX43 (11728927_at) / RFU KRT8 (11758188_x_at) / Fold change /veh KRT8 (11758188_x_at) / RFU NKD1 (11759106_at) / Fold change /veh NKD1 (11759106_at) / RFU SRD5A1 (11742802_a_at) / Fold change /veh SRD5A1 (11742802_a_at) / RFU TPSAB1 /// TPSB2 (11721975_s_at) / Fold change /veh TPSAB1 /// TPSB2 (11721975_s_at) / RFU GSTM3 (11746129_a_at) / Fold change /veh GSTM3 (11746129_a_at) / RFU IL23R (11737362_x_at) / Fold change /veh IL23R (11737362_x_at) / RFU TMEM51 (11727254_a_at) / Fold change /veh TMEM51 (11727254_a_at) / RFU PIWIL2 (11732686_x_at) / Fold change /veh PIWIL2 (11732686_x_at) / RFU ORM1 (11744905_x_at) / Fold change /veh ORM1 (11744905_x_at) / RFU CCDC152 (11743942_at) / Fold change /veh CCDC152 (11743942_at) / RFU ECM1 (11717891_a_at) / Fold change /veh ECM1 (11717891_a_at) / RFU IL23R (11748794_a_at) / Fold change /veh IL23R (11748794_a_at) / RFU TNFAIP8L3 (11732012_x_at) / Fold change /veh TNFAIP8L3 (11732012_x_at) / RFU MBOAT4 (11741988_at) / Fold change /veh MBOAT4 (11741988_at) / RFU 11764193_at / Fold change /veh 11764193_at / RFU TMEM53 (11763286_at) / Fold change /veh TMEM53 (11763286_at) / RFU MAGEB2 (11727129_at) / Fold change /veh MAGEB2 (11727129_at) / RFU TMEM200A (11744735_a_at) / Fold change /veh TMEM200A (11744735_a_at) / RFU CCDC152 (11751479_a_at) / Fold change /veh CCDC152 (11751479_a_at) / RFU FAM211A (11726209_a_at) / Fold change /veh FAM211A (11726209_a_at) / RFU RGS16 (11746705_a_at) / Fold change /veh RGS16 (11746705_a_at) / RFU VCAN (11755009_s_at) / Fold change /veh VCAN (11755009_s_at) / RFU RHOB (11743442_s_at) / Fold change /veh RHOB (11743442_s_at) / RFU RGS16 (11720943_a_at) / Fold change /veh RGS16 (11720943_a_at) / RFU RGS16 (11720944_at) / Fold change /veh RGS16 (11720944_at) / RFU, VPS4B / Fold change vs veh, VPS4B / RFU, CREB1 / Fold change vs veh, CREB1 / RFU, DNAJC13 / Fold change vs veh, DNAJC13 / RFU, GNAQ / Fold change vs veh, GNAQ / RFU, CDK5R1 / Fold change vs veh, CDK5R1 / RFU, ZRANB3 / Fold change vs veh, ZRANB3 / RFU, CUL4A / Fold change vs veh, CUL4A / RFU, CCNY / Fold change vs veh, CCNY / RFU, UFL1 / Fold change vs veh, UFL1 / RFU, COG3 / Fold change vs veh, COG3 / RFU, DIAPH2 / Fold change vs veh, DIAPH2 / RFU, SKA2 / Fold change vs veh, SKA2 / RFU, AFF3 / Fold change vs veh, AFF3 / RFU, LMF1 / Fold change vs veh, LMF1 / RFU, IPO11 / Fold change vs veh, IPO11 / RFU, DFFB / Fold change vs veh, DFFB / RFU, FOXP1 / Fold change vs veh, FOXP1 / RFU, CARD8 / Fold change vs veh, CARD8 / RFU, STRN3 / Fold change vs veh, STRN3 / RFU, ADK / Fold change vs veh, ADK / RFU, RASSF2 / Fold change vs veh, RASSF2 / RFU, WIPF1 / Fold change vs veh, WIPF1 / RFU, LARP1B / Fold change vs veh, LARP1B / RFU, RASA1 / Fold change vs veh, RASA1 / RFU, RB1 / Fold change vs veh, RB1 / RFU, PPFIA1 / Fold change vs veh, PPFIA1 / RFU, MAT2A / Fold change vs veh, MAT2A / RFU, CCT5 / Fold change vs veh, CCT5 / RFU, WDR92 / Fold change vs veh, WDR92 / RFU, CUX1 / Fold change vs veh, CUX1 / RFU, TTC7A / Fold change vs veh, TTC7A / RFU, TMEM135 / Fold change vs veh, TMEM135 / RFU, DEPTOR / Fold change vs veh, DEPTOR / RFU, CPM / Fold change vs veh, CPM / RFU, DNAJB6 / Fold change vs veh, DNAJB6 / RFU, CACNA2D3 / Fold change vs veh, CACNA2D3 / RFU, DTX4 / Fold change vs veh, DTX4 / RFU, TFCP2 / Fold change vs veh, TFCP2 / RFU, GMCL1 /// GMCL1P1 / Fold change vs veh, GMCL1 /// GMCL1P1 / RFU, AEBP2 / Fold change vs veh, AEBP2 / RFU, SNHG1 /// SNORD22 /// SNORD25 /// SNORD26 /// SNORD27 /// SNORD28 /// SNORD29 /// SNORD31 / Fold change vs veh, SNHG1 /// SNORD22 /// SNORD25 /// SNORD26 /// SNORD27 /// SNORD28 /// SNORD29 /// SNORD31 / Fold change (Aza/veh), C12orf56 (ProbeSet 11735607_a_at) / Fold change (ACY-1035/veh), C12orf56 (ProbeSet 11735607_a_at) / Fold change (Aza/veh), FGFR1OP (ProbeSet 11751329_s_at) / Fold change (ACY-1035/veh), FGFR1OP (ProbeSet 11751329_s_at) / Fold change (Aza/veh), VPS36 (ProbeSet 11739960_a_at) / Fold change (ACY-1035/veh), VPS36 (ProbeSet 11739960_a_at) / RFU SYPL1 (11715823_x_at) / Fold change /veh SYPL1 (11715823_x_at) / RFU IGFBP7 (11715501_s_at) / Fold change /veh IGFBP7 (11715501_s_at) / RFU REEP3 (11722064_at) / Fold change /veh REEP3 (11722064_at) / RFU IGLL1 (11728026_x_at) / Fold change /veh IGLL1 (11728026_x_at): dose or concentration left out as unconfirmed",
  "conditions": "ProbeSet 11716891_at; LIST B",
  "data": [
    {"smiles": "Nc1ncn([C@@H]2O[C@H](CO)[C@@H](O)[C@H]2O)c(=O)n1", "note": "[azacitidine]", "values": [
      {"measurement": "RFU, C9orf123", "value": 42.83, "unit": "RFU"}
    ]}
  ]
}
